This is an account of results in ChEMBL document CHEMBL5465560, “Selectivity Literature for EUbOPEN Chemogenomic Library” (2024).

Assay [1] deals with Tyrosine-protein kinase FRK (Homo sapiens) (UniProt P42685). The settings on record: at 10 µM.
The target in assay [2] is Wee1-like protein kinase 2 (Homo sapiens) (UniProt P0C1S8). The assay is described as follows: Selectivity interaction (KinomeScan (DiscoverX)) EUB0001619a WEE2. The settings on record: at 1 µM.
In assay [3] the target is Mitogen-activated protein kinase kinase kinase 4 (Homo sapiens) (UniProt Q9Y6R4). Conditions: at 10 µM.
For assay [4], the target named is Protein kinase C eta type (Homo sapiens) (UniProt P24723). Nature of the assay: Selectivity interaction (KinomeScan (DiscoverX)) EUB0000695a PRKCH. Conditions: at 100 nM.
The target of assay [5] is T1, Serine/threonine-protein kinase 36 (Homo sapiens) (UniProt Q9NRP7).
T1 sequence (whole entry): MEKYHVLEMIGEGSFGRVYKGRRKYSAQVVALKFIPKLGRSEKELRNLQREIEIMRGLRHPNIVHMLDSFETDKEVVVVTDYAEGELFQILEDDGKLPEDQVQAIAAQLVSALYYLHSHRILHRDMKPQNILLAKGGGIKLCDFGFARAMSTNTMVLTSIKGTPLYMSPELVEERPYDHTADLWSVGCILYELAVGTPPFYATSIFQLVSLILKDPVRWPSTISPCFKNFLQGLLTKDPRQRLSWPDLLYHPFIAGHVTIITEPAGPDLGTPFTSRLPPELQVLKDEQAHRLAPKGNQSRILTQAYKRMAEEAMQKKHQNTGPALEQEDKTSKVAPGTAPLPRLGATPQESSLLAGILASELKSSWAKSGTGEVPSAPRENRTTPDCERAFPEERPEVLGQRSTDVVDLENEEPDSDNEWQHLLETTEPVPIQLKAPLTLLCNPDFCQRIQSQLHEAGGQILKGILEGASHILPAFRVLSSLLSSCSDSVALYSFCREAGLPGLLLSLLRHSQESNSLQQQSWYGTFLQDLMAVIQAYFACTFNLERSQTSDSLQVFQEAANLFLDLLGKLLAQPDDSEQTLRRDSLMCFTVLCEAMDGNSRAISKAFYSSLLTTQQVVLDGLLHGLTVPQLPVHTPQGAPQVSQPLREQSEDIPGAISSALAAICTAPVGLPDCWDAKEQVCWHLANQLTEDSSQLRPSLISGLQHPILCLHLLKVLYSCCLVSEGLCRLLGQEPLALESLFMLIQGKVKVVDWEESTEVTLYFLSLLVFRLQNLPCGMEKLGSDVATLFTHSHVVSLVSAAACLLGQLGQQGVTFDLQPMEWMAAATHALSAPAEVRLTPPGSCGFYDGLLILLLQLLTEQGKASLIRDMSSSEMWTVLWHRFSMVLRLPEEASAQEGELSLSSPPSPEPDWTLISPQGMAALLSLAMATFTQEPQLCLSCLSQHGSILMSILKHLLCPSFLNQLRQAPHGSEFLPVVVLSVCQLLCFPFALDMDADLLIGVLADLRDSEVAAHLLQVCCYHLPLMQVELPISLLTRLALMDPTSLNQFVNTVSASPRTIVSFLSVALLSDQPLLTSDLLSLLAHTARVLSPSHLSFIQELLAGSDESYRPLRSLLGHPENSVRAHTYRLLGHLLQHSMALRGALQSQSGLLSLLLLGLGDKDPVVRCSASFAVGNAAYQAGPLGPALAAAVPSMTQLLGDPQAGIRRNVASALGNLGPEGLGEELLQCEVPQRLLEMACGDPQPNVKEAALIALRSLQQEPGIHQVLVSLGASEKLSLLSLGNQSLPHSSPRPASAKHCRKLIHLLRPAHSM
Nature of the assay: Selectivity interaction (KinomeScan (DiscoverX)) EUB0000666a STK36. The settings on record: at 10 µM.

Assay [6] concerns the target Casein kinase I isoform alpha (Homo sapiens, UniProt P48729). The assay is described as follows: Selectivity interaction (KinomeScan (DiscoverX)) EUB0000045b CSNK1A1.
Assay [7] concerns the target Serine/threonine-protein kinase MRCK gamma (Homo sapiens) (UniProt Q6DT37). The assay is described as follows: Selectivity interaction (Ambit KINOMEscan and KiNATiv profiling in Jurkat cells) EUB0000090b CDC42BPG. The format is cell-based. Conditions: at 1 µM.
Assay [8] addresses Myosin light chain kinase, smooth muscle (Homo sapiens, UniProt Q15746). The assay is described as follows: Selectivity interaction (Ambit KINOMEscan and KiNATiv profiling in Jurkat cells) EUB0000090b MYLK. The format is cell-based. Conditions: at 1 µM.
In assay [9] the target is Mitogen-activated protein kinase 8 (Homo sapiens, UniProt P45983). The assay is described as follows: Selectivity interaction (KinomeScan (DiscoverX)) EUB0001049a MAPK8. Conditions: at 1 µM.
Assay [10] concerns the target Receptor tyrosine-protein kinase erbB-2 (Homo sapiens, UniProt P04626). The assay is described as follows: Selectivity interaction (KinomeScan (DiscoverX)) EUB0000655a ERBB2. Conditions: at 10 µM.
The target in assay [11] is Bromodomain-containing protein 4 (Homo sapiens, UniProt O60885). Nature of the assay: Selectivity interaction (Bromodomain panel (DSF asssay)) EUB0000270b BRD4.
For assay [12], the target named is Serine/threonine-protein kinase pim-2 (Homo sapiens, UniProt Q9P1W9). Nature of the assay: Selectivity interaction (KinomeScan (DiscoverX)) EUB0000618a PIM2. Conditions: at 10 µM.
The target of assay [13] is T2, MAP kinase-activated protein kinase 5 (Homo sapiens) (UniProt Q8IW41).
T2 sequence (whole entry): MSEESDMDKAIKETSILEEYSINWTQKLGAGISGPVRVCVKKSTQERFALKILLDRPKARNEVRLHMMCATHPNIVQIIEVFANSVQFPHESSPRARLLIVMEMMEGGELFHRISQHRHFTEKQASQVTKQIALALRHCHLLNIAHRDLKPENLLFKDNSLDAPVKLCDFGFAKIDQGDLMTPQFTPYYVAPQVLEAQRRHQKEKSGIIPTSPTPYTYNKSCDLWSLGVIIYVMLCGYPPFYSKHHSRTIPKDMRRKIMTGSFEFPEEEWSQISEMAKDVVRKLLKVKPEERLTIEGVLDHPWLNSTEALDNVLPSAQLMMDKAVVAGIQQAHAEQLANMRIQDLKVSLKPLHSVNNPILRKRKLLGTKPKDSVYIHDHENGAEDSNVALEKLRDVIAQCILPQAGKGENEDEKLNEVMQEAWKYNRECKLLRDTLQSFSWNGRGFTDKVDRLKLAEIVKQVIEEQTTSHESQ
Nature of the assay: Selectivity interaction (KinomeScan (DiscoverX)) EUB0001079a MAPKAPK5. Conditions: at 1 µM.

Casein kinase I isoform alpha, sequence (P48729 2-337 limits assumed): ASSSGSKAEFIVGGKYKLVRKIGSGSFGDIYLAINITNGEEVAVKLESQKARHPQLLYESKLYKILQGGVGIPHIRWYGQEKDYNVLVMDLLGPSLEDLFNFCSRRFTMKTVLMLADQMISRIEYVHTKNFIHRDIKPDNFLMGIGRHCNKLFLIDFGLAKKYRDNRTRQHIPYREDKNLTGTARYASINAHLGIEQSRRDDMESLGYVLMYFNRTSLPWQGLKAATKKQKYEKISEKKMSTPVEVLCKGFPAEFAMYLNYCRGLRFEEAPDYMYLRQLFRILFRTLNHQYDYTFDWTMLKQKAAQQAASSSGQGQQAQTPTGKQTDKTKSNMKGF
Myosin light chain kinase, smooth muscle, sequence (Q15746 whole entry): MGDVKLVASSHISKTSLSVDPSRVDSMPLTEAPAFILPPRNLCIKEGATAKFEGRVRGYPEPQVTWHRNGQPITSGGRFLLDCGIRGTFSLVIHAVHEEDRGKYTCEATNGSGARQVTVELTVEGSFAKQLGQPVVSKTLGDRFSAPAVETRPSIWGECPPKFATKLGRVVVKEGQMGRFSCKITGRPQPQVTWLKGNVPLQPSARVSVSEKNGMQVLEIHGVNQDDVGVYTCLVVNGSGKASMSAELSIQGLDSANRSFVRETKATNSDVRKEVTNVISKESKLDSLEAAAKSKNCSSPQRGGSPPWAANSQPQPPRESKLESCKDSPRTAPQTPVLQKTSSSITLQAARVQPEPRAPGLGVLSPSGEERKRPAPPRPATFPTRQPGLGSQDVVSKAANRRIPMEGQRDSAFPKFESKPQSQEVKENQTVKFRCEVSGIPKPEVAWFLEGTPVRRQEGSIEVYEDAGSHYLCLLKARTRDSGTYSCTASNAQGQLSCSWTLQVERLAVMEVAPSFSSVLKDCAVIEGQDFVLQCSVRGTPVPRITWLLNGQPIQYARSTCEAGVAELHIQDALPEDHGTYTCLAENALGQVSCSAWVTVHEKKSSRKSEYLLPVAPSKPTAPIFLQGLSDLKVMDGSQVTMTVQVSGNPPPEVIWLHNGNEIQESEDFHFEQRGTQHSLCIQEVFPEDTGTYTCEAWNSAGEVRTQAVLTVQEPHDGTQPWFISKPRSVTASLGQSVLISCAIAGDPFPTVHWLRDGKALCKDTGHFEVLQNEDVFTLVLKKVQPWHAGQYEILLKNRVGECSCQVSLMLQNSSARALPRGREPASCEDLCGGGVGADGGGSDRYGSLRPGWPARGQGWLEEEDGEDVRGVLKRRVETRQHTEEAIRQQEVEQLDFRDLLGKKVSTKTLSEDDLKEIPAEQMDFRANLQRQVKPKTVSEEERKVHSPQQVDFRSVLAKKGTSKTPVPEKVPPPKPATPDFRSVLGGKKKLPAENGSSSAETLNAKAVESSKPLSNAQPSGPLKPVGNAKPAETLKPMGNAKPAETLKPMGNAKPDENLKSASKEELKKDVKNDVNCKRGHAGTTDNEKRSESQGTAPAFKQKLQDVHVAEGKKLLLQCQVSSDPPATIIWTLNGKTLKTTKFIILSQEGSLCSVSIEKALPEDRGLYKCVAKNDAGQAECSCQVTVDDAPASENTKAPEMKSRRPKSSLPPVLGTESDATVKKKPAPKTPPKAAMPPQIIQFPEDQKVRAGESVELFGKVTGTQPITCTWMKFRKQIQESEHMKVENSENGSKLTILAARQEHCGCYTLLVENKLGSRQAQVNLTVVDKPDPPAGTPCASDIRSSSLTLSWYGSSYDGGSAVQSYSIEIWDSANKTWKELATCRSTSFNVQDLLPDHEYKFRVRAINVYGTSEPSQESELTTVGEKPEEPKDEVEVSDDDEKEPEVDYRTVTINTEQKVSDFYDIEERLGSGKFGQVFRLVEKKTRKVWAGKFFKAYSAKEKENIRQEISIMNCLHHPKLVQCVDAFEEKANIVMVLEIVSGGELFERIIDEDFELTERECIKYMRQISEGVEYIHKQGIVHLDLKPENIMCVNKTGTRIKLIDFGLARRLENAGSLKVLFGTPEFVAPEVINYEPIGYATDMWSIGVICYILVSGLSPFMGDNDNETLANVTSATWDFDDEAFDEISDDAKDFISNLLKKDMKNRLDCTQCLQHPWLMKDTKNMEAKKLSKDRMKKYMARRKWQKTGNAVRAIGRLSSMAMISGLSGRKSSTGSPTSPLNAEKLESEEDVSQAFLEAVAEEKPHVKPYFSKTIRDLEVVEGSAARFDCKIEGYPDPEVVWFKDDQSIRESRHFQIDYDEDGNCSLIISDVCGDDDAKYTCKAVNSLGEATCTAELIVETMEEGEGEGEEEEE
Tyrosine-protein kinase FRK (Homo sapiens), sequence (P42685 whole entry): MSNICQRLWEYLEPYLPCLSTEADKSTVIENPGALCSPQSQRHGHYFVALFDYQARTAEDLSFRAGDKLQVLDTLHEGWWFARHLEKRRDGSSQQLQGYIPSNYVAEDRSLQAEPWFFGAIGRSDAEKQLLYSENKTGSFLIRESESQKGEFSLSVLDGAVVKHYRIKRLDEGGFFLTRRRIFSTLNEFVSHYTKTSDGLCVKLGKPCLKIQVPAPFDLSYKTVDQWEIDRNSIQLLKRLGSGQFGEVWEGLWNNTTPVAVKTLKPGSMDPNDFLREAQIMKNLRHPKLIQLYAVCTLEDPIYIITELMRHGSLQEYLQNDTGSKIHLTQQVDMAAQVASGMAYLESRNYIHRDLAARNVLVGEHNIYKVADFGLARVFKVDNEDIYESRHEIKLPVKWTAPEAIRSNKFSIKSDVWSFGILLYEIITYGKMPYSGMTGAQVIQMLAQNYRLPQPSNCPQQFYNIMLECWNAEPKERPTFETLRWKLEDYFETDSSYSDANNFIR
Protein kinase C eta type (Homo sapiens), sequence (P24723 whole entry): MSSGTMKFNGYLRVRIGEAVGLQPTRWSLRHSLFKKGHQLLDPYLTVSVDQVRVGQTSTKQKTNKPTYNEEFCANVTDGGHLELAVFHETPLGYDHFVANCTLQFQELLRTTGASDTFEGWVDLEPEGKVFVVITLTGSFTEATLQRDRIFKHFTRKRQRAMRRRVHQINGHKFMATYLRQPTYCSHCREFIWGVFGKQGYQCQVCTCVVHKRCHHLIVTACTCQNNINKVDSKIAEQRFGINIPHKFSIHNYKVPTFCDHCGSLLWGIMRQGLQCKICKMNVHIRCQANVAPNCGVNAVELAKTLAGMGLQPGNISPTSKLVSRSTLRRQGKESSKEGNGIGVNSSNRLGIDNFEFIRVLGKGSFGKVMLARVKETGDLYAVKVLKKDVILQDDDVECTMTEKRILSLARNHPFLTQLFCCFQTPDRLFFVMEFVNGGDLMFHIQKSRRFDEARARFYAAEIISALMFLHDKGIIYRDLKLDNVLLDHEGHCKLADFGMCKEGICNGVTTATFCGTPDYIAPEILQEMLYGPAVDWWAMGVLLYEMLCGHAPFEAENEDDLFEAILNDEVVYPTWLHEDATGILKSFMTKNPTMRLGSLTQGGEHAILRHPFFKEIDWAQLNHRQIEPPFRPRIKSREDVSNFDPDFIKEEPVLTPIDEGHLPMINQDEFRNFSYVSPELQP
Serine/threonine-protein kinase pim-2, sequence (Q9P1W9 whole entry, looked up): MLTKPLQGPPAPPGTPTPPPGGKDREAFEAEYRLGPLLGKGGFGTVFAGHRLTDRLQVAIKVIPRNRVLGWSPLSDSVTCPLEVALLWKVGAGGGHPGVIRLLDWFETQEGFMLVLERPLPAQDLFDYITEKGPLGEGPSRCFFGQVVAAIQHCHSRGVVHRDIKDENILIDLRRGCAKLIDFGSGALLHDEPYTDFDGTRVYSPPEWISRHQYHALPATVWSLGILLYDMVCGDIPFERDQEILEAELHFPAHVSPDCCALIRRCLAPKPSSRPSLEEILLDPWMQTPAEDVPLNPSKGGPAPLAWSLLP
Mitogen-activated protein kinase 8, sequence (P45983 whole entry): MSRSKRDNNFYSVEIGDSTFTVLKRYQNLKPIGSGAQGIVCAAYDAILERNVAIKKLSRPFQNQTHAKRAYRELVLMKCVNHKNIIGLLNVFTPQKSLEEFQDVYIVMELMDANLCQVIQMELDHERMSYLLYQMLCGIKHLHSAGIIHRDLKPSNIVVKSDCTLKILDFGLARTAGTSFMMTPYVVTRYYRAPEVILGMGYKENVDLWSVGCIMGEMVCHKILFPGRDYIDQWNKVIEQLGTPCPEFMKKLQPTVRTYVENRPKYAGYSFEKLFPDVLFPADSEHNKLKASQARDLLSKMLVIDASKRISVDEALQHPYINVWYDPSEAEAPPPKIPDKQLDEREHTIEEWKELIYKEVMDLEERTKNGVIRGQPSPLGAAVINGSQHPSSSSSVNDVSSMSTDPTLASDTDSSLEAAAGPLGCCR
Wee1-like protein kinase 2 (Homo sapiens), sequence (P0C1S8 whole entry, looked up): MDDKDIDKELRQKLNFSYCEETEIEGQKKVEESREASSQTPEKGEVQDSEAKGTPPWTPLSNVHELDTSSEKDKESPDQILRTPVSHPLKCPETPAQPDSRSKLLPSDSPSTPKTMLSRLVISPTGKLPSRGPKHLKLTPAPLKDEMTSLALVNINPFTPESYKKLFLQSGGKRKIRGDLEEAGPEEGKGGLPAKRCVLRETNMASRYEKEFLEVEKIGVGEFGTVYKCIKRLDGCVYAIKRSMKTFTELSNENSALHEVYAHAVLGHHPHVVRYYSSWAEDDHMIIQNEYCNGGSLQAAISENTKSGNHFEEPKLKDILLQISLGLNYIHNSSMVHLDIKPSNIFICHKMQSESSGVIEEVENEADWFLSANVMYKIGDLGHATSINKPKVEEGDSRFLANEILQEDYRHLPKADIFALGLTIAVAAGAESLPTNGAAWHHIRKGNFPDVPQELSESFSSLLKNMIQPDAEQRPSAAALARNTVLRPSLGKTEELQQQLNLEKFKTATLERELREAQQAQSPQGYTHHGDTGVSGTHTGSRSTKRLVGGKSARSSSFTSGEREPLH

With `COCC(=O)NC/C=C/c1ccc2ncnc(Nc3ccc(Oc4ccc(C)nc4)c(C)c3)c2c1` [CP-724714], in assay [1], the % of control was 100%. Turning to `N#Cc1cccc(-c2c[nH]c3ncnc(N4CCOCC4)c23)c1`, the % of control in assay [2] is 96%. `CCN(CC)CCCCNc1ncc2cc(-c3cc(OC)cc(OC)c3)c(NC(=O)NC(C)(C)C)nc2n1` yielded a % of control in assay [3] of 100%.

`Cc1cc(F)c(C(=O)Nc2cccc(-c3nncn3C(C)C)n2)cc1-n1cnc(C2CC2)c1` returned a % of control in assay [4] of 91%. As to `O=C(NOC[C@H](O)CO)c1ccc(F)c(F)c1Nc1ccc(I)cc1F`, in assay [5], the % of control came to 74%. Regarding `C=CC(=O)Nc1cc(-n2c(=O)ccc3cnc4ccc(-c5ccc(NS(C)(=O)=O)cc5)cc4c32)ccc1C`, the % of control in [6] (at 1 µM) and in [6] (at 10 µM) was 100% in each case. Take `CN(C)C/C=C/C(=O)Nc1ccc(C(=O)N2CCCC(Nc3ncc(Cl)c(-c4c[nH]c5ccccc45)n3)C2)cc1` (centres undefined): the results for the % of control in assay [7] and in [8] were 90% and 100%, respectively.

Turning to `COc1cc(Nc2nc(C)cc(-c3cnn4nc(OC)ccc34)n2)cc(C(F)(F)F)c1`, the % of control in assay [9] was 88%. `CN(C)CCOc1ccc(-c2nc(-c3ccncc3)c(-c3ccc4c(c3)CC/C4=N\O)[nH]2)cc1`: the % of control in assay [10] was found to be 40%. As to `Cc1cc(CN)cc(C)c1-c1ncn(C)c1-c1cncn1C`, the dTM in [11] was -0.92 K.

In [12], `O[C@H]1CC[C@H](Nc2ncc3nc(Nc4c(F)cc(F)cc4F)n([C@H]4CCOC4)c3n2)CC1` registered a % of control of 100%. In [13], `Nc1cnc(N2CCc3cc(S(=O)(=O)Nc4c(F)cc(Cl)cc4F)cc(N4CCCC4=O)c32)nc1` [TP-020n] displayed a % of control of 92%.
